Assay results as given in patent US6348486B1, “Methods for modulating bladder function” (American Home Products Corporation, priority 2000, dated 2002).

What was measured:
[1] = system: isolated carbachol contracted rat bladder strips; test: Relaxation of isolated carbachol contracted rat bladder strips
Experimental: (§1) Using quantitative rtPCR, the expression of KCNQ1, KCNQ3 and KCNQ5 potassium channels was identified in the rat urinary bladder. […] To further probe M-current activity in the bladder, retigabine (10 μM, M-current agonist) was tested in isolated bladder smooth muscle cells using standard patch-clamp techniques. […] This hyperpolarization was reversed by the addition of linopirdine (50 μM an M-current antagonist) to the tissue bath. […] This relaxation was reversed by the M-current blockers linopirdine and XE-991.

[2] = system: isolated bladder smooth muscle cells; test: Patch-clamp of isolated bladder smooth muscle cells (M-current activity); format: cell-based, rat
Experimental: as §1

[3] = target: T1, KCNQ2/3 potassium channels (Homo sapiens, UniProt O43525+O43526); conditions: oocytes; cited from earlier work
T1 construct: host or cells: oocytes (heterologous expression, as described in the cited article)
T1 sequence (O43526 whole entry): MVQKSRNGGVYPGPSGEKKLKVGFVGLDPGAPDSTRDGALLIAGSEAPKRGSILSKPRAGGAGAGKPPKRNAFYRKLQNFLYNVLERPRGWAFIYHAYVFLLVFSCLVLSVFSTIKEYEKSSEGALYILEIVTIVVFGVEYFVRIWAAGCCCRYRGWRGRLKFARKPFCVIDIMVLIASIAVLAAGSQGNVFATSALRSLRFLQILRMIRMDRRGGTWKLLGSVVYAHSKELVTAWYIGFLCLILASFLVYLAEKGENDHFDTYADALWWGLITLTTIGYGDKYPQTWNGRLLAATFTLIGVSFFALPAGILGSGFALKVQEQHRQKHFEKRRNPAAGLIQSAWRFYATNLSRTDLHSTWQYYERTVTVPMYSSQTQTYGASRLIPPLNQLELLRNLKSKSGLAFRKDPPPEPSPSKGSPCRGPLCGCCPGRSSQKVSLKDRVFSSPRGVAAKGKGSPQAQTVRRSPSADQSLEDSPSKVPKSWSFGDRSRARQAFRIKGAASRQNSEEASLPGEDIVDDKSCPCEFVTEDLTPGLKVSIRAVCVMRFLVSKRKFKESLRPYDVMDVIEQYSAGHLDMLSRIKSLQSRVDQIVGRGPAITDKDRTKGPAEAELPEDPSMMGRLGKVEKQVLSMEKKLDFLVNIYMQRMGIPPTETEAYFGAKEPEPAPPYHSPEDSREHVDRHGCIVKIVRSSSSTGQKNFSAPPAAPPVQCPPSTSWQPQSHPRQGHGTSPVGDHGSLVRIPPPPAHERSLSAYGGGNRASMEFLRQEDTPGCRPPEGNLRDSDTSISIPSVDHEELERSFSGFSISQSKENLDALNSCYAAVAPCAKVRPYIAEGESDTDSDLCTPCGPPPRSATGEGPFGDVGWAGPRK
T1 sequence (O43525 whole entry): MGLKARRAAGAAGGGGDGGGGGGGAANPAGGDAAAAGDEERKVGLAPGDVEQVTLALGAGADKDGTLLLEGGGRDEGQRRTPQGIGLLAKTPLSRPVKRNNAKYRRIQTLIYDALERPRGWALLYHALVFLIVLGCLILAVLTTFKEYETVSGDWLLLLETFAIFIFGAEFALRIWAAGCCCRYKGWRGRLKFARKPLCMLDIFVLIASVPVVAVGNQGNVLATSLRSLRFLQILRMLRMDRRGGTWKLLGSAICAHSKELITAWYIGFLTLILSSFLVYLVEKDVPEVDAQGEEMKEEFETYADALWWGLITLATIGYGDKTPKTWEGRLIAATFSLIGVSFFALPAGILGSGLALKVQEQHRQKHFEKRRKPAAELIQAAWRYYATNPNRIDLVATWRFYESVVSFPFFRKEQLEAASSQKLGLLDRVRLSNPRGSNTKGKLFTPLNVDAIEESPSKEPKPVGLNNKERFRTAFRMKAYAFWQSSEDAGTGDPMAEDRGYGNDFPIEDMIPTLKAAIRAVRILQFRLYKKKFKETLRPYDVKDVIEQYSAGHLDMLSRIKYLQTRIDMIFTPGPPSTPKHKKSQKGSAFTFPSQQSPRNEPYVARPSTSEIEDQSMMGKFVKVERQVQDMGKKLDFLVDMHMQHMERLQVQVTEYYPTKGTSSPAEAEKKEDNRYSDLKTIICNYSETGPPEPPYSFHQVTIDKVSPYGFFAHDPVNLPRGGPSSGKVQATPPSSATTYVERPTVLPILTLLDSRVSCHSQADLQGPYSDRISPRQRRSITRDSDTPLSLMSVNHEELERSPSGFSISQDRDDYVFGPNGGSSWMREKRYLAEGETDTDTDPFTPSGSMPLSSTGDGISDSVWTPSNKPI

Row | SMILES | reversal of retigabine-induced relaxation by M-current blockers [1] | reversal of retigabine-induced hyperpolarization ([2]; linopirdine 50 μM added to the tissue bath) | channel deactivation [3] | rate of channel activation [3] | voltage dependence of channel activation [3] | IC50 ([1]; Rattus norvegicus, read-out: IC50 for relaxation of carbachol contracted bladder strips) | membrane hyperpolarization ([2]; retigabine 10 μM, n=5) | outward current insensitive to iberiotoxin ([2]; retigabine 10 μM, standard patch-clamp)
1 | O=C1c2ccccc2C(Cc2ccncc2)(Cc2ccncc2)c2ccccc21 [XE-991] | reversed | – | – | – | – | – | – | –
2 | O=C1N(c2ccccc2)c2ccccc2C1(Cc1ccncc1)Cc1ccncc1 [linopirdine] | reversed | reversed | – | – | – | – | – | –
3 | CCOC(=O)Nc1ccc(NCc2ccc(F)cc2)cc1N [retigabine, N-[2-amino-4-(4-fluorobenzylamino)-phenyl]carbamic acid ethyl ester] | – | – | slows channel deactivation | increases the rate of channel activation | shifts the voltage dependence of channel activation to more hyperpolarized membrane potentials | 3.5 ± 0.9 µM | 17.8±3.0 mV | significantly increased
